Assay results published in patent US6908935B2, “Calcium receptor modulating agents” (Amgen Inc., priority 2002, dated 2005).

Each compound was assayed against T1, human parathyroid cell Ca^2+ receptor (hPCaR) (Homo sapiens, UniProt P41180) (assay: [Ca2+]i measurement with fluo-3 in HEK 293 4.0-7 cells stably transfected with hPCaR). Details: fluo-3 fluorescence (485/530 nm), effect on [Ca^2+]i.
T1 construct: expressed in transfected cells
T1 sequence (P41180 20-1078): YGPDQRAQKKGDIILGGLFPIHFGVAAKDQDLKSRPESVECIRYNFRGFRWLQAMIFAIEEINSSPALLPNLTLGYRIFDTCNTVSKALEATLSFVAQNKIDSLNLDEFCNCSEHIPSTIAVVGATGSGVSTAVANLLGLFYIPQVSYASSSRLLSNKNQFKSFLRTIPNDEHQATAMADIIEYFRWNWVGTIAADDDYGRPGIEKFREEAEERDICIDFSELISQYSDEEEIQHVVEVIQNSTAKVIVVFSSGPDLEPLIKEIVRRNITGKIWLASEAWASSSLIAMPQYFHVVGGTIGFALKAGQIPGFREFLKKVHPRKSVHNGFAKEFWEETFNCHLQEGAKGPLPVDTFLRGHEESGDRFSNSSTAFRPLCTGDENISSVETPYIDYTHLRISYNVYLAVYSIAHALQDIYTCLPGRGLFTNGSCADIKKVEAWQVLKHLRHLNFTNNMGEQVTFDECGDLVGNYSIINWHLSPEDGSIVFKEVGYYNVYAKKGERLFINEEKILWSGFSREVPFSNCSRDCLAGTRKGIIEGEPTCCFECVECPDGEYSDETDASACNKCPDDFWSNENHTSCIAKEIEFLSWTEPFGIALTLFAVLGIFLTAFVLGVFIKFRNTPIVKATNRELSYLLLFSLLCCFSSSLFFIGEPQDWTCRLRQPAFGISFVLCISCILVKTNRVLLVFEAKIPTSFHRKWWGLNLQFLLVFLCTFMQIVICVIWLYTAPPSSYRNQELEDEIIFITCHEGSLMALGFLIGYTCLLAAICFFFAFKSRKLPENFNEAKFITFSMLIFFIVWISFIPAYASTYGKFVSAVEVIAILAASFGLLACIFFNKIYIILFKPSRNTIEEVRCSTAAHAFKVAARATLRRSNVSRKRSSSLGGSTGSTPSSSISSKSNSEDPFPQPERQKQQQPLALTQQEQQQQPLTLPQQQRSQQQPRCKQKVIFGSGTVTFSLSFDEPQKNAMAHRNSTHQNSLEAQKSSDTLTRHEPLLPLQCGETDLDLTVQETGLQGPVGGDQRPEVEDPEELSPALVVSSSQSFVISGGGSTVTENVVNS
Format: cell-based
Method: The activities of the compounds of the present invention on calcium receptors were measured. In one embodiment, the measurement was performed in accordance with the method described in Example 4 of Nemeth et al., PCT/US95/13704 (International Publication No. WO96/12697) herein incorporated by reference.
A 4.0-kb NotI-HindIII fragment of the human parathyroid cell Ca^2+ receptor (hPCaR) cDNA was subcloned into the mammalian expression vector pCEP4 (Invitrogen) containing the hygromycin-resistant gene as a selectable marker. This plasmid was transfected into HEK 293 cells by calcium phosphate precipitation. Transfected cells were grown in Dulbecco's modified Eagle's medium containing 10% fetal bovine serum and hygromycin (200 μg/mL). Hygromycin-resistant colonies were subcloned and assayed for hPCaR mRNA by solution hybridization using a ^32P-labeled RNA probe complementary to the (4.0 kb) hPCaR sequence (Garrett, et al., J. Biol. Chem. 270, 12919-12925 (1995)). Clone 7 was used to assess the effects of compounds on [Ca^2+]i. This stably transfected cell line is termed HEK 293 4.0-7. For measurements of [Ca^2+]i, the cells were recovered from tissue culture flasks by brief treatment with 0.02% EDTA and then washed and resuspended in PCB containing 1 mM CaCl2 and 0.1% Bovine Serum Albumin (“BSA”). The cells were loaded with fluo-3 by incubation for 30 min at 37° C., with parathyroid cell buffer (126 mM NaCl, 4 mM KCl, 1 mM MgSO4, 0.7 mM K2HPO/KH2PO4, 20 mM HEPES.NaOH (pH 7.45)) containing 0.5% BSA in lmM CaCl2 and 2 μM fluo-3 acetoxymethyl ester. The cells were subsequently washed, each test compound was added to the cells and the fluorescence was recorded by using excitation and emission wavelengths of 485 and 530 nm, respectively.

EC50, ≤ 10 µM:
COc1ccc(CN[C@H](C)c2ccccc2)cc1-c1cccc(C(=O)O)c1 [2′-(methyloxy)-5′-((((1R)-1-phenylethyl)amino)methyl)-1,1′-biphenyl-3-carboxylic acid]
COc1ccc(CN[C@H](C)c2ccccc2)cc1-c1ccc(C(N)=O)cc1 [2′-(methyloxy)-5′-((((1R)-1-phenylethyl)amino)methyl)-1,1′-biphenyl-4-carboxamide]
COc1ccc(CN[C@H](C)c2ccccc2)cc1-c1cccnc1NCCCN1CCOCC1 [3-(2-(methyloxy)-5-((((1R)-1-phenylethyl)amino)methyl)phenyl)-N-(3-(4-morpholinyl)propyl)-2-pyridinamine]
COc1ccc(CN[C@H](C)c2ccccc2)cc1-c1cccnc1NCC1CCCO1 (stereo partly drawn) [3-(2-(methyloxy)-5-((((1R)-1-phenylethyl)amino)methyl)phenyl)-N-(tetrahydro-2-furanylmethyl)-2-pyridinamine]
COc1ccc(CN[C@H](C)c2ccccc2)cc1-c1csc(N)n1 [4-(2-(methyloxy)-5-((((1R)-1-phenylethyl)amino)methyl)phenyl)-1,3-thiazol-2-amine]
COc1ccc([C@@H](C)NCc2cccc(-c3ccc(NC(=O)CCC(=O)O)nc3)c2)cc1 [4-((5-(3-((((1R)-1-(4-(methyloxy)phenyl)ethyl)amino)methyl)phenyl)-2-pyridinyl)amino)-4-oxobutanoic acid]
C[C@@H](NCc1cccc(-c2ccc(NC(=O)CCC(=O)O)nc2)c1)c1ccccc1 [4-oxo-4-((5-(3-((((1R)-1-phenylethyl)amino)methyl)phenyl)-2-pyridinyl)amino)butanoic acid]
COc1ccc(CN[C@H](C)c2cccc3ccccc23)cc1-c1cncc(C(N)=O)c1 [5-(2-(methyloxy)-5-((((1R)-1-(1-naphthalenyl)ethyl)amino)methyl)phenyl)-3-pyridinecarboxamide]
COc1ccc(CN[C@H](C)c2ccc3ccccc3c2)cc1-c1cnc(N)nc1 [5-(2-(methyloxy)-5-((((1R)-1-(2-naphthalenyl)ethyl)amino)methyl)phenyl)-2-pyrimidinamine]
COc1ccc(CN[C@H](C)c2ccc3ccccc3c2)cc1-c1cncc(C(N)=O)c1 [5-(2-(methyloxy)-5-((((1R)-1-(2-naphthalenyl)ethyl)amino)methyl)phenyl)-3-pyridinecarboxamide]
COc1cccc([C@@H](C)NCc2ccc(OC)c(-c3ccc(C(=O)O)o3)c2)c1 [5-(2-(methyloxy)-5-((((1R)-1-(3-(methyloxy)phenyl)ethyl)amino)methyl)phenyl)-2-furancarboxylic acid]
COc1ccc(CN[C@H](C)c2ccc(C)cc2)cc1-c1cnc(N)nc1 [5-(2-(methyloxy)-5-((((1R)-1-(4-methylphenyl)ethyl)amino)methyl)phenyl)-2-pyrimidinamine]
COc1ccc(CN[C@H](C)c2ccc(C)cc2)cc1-c1cncc(C(N)=O)c1 [5-(2-(methyloxy)-5-((((1R)-1-(4-methylphenyl)ethyl)amino)methyl)phenyl)-3-pyridinecarboxamide]
COc1ccc(CN[C@H](C)c2ccccc2)cc1-c1ccc(=O)n(CC(F)(F)F)c1 [5-(2-(methyloxy)-5-((((1R)-1-phenylethyl)amino)methyl)phenyl)-1-(2,2,2-trifluoroethyl)-2(1H)-pyridinone]
COc1ccc(CN[C@H](C)c2ccccc2)cc1-c1ccc(N)nc1 [5-(2-(methyloxy)-5-((((1R)-1-phenylethyl)amino)methyl)phenyl)-2-pyridinamine]
COc1ccc(CN[C@H](C)c2ccccc2)cc1-c1cncc(C(N)=O)c1 [5-(2-(methyloxy)-5-((((1R)-1-phenylethyl)amino)methyl)phenyl)-3-pyridinecarboxamide]
COc1cccc([C@@H](C)NCc2cccc(-c3cncc(C(N)=O)c3)c2)c1 [5-(3-((((1R)-1-(3-(methyloxy)phenyl)ethyl)amino)methyl)phenyl)-3-pyridinecarboxamide]
C[C@@H](NCc1cccc(-c2ccccn2)c1)c1cccc2ccccc12 [(1R)-1-(1-naphthalenyl)-N-((3-(2-pyridinyl)phenyl)methyl)ethanamine]
C[C@@H](NCc1cccc(-c2ccc(C(F)(F)F)nc2)c1)c1cccc2ccccc12 [(1R)-1-(1-naphthalenyl)-N-((3-(6-(trifluoromethyl)-3-pyridinyl)phenyl)methyl)ethanamine]
C[C@@H](NCc1ccc(OCC(F)(F)F)c(-c2ccc(C(F)(F)F)cc2)c1)c1cccc2ccccc12 [(1R)-1-(1-naphthalenyl)-N-((6-((2,2,2-trifluoroethyl)oxy)-4′-(trifluoromethyl)-1,1′-biphenyl-3-yl)methyl)ethanamine]
C[C@@H](NCc1cccc(-c2ccccn2)c1)c1ccc2ccccc2c1 [(1R)-1-(2-naphthalenyl)-N-((3-(2-pyridinyl)phenyl)methyl)ethanamine]
COCCOc1cccc([C@@H](C)NCc2ccc(OC)c(-c3ccc(C(F)(F)F)cc3)c2)c1 [(1R)-1-(3-((2-(methyloxy)ethyl)oxy)phenyl)-N-((6-(methyloxy)-4′-(trifluoromethyl)-1,1′-biphenyl-3-yl)methyl)ethanamine]
COc1cccc([C@@H](C)NCc2cccc(-c3nccs3)c2)c1 [(1R)-1-(3-(methyloxy)phenyl)-N-((3-(1,3-thiazol-2-yl)phenyl)methyl)ethanamine]
COc1cccc([C@@H](C)NCc2cccc(-c3cnccn3)c2)c1 [(1R)-1-(3-(methyloxy)phenyl)-N-((3-(2-pyrazinyl)phenyl)methyl)ethanamine]
COc1cccc([C@@H](C)NCc2cccc(-c3ccccn3)c2)c1 [(1R)-1-(3-(methyloxy)phenyl)-N-((3-(2-pyridinyl)phenyl)methyl)ethanamine]
COc1cccc([C@@H](C)NCc2cccc(-c3cncnc3)c2)c1 [(1R)-1-(3-(methyloxy)phenyl)-N-((3-(5-pyrimidinyl)phenyl)methyl)ethanamine]
COc1cccc([C@@H](C)NCc2cccc(-c3ccc(OC)nn3)c2)c1 [(1R)-1-(3-(methyloxy)phenyl)-N-((3-(6-(methyloxy)-3-pyridazinyl)phenyl)methyl)ethanamine]
COc1cccc([C@@H](C)NCc2cccc(-c3ccc(C)nc3)c2)c1 [(1R)-1-(3-(methyloxy)phenyl)-N-((3-(6-methyl-3yridinyl)phenyl)methyl)ethanamine]
COc1cccc([C@@H](C)NCc2ccc(OC)c(-c3nccs3)c2)c1 [(1R)-1-(3-(methyloxy)phenyl)-N-((4-(methyloxy)-3-(1,3-thiazol-2-yl)phenyl)methyl)ethanamine]
